# Reference: patent US5876948A (priority 1991, dated 1999)
# Peptide text beside a SMILES is read from it.
# Key:
# hippocampal neurons [1] = format: cell-based, rat
# hippocampal neurons [2] = format: cell-based, rat; remark: listed apart in the source
# hippocampal neurons [3] = format: cell-based, rat; remark: listed apart in the source
# hippocampal neurons [4] = format: cell-based, rat; remark: listed apart in the source
# [5] = in vivo; cited from earlier work
# [6] = test system: primary hippocampal neurons; assay: Block of β1-40 neuronal toxicity by Substance P and analogs (therapeutic efficacy); format: cell-based, rat
Molecule,% Toxic Response (hippocampal neurons [1]),neurotoxic activity / late neuronal survival (in words) (hippocampal neurons [1]),reversal of early trophic response to β1-40 (hippocampal neurons [2]),reversal of late toxic response to β1-40 (hippocampal neurons [3]),% Trophic Response (hippocampal neurons [4]),neurotrophic activity / early neuronal survival (in words) (hippocampal neurons [4]),Therapeutic Efficacy (%): ability to block neuronal toxicity of β1-40 [6],other results
CC[C@H](C)[C@H](NC(=O)[C@H](Cc1ccccc1)NC(=O)[C@H](C)NC(=O)[C@H](CC(=O)O)NC(=O)[C@H](CCCCN)NC(=O)[C@H](CO)NC(=O)[C@@H]1CCCN1C(=O)[C@@H]1CCC(=O)N1)C(=O)NCC(=O)N[C@@H](CC(C)C)C(=O)N[C@@H](CCSC)C(N)=O [Eledoisin] (HELM PEPTIDE1{[Glp].P.S.K.D.A.F.I.G.L.M.[am]}$$$$V2.0),0 ± 6,no effect on early or late neuronal survival,did not show significant effects,did not show significant effects,0 ± 11,no effect on early or late neuronal survival,,
CSCC[C@H](NC(=O)[C@H](CC(C)C)NC(=O)CNC(=O)[C@H](Cc1ccc(O)cc1)NC(=O)[C@H](Cc1ccccc1)NC(=O)[C@H](CCCCN)NC(=O)[C@H](CC(N)=O)NC(=O)[C@@H]1CCCN1C(=O)[C@H](CC(=O)O)NC(=O)[C@H](C)NC(=O)[C@@H]1CCC(=O)N1)C(N)=O [Physalaemin] (HELM PEPTIDE1{[Glp].A.D.P.N.K.F.Y.G.L.M.[am]}$$$$V2.0),0 ± 7%,no effect on early or late neuronal survival,almost completely reversed,almost completely reversed,0 ± 4%,no effect on early or late neuronal survival,,
CSCC[C@H](NC(=O)[C@H](CC(C)C)NC(=O)CNC(=O)[C@H](Cc1ccccc1)NC(=O)[C@H](Cc1ccccc1)NC(=O)[C@H](CCC(N)=O)NC(=O)[C@H](CCC(N)=O)NC(=O)[C@@H]1CCCN1C(=O)[C@H](CCCCN)NC(=O)[C@@H]1CCCN1C(=O)[C@@H](N)CCCN=C(N)N)C(N)=O [Substance P],,,,,,,,crossing of the blood-brain barrier [5]: known to cross the blood-brain barrier
"CSCC[C@H](NC(=O)[C@H](CC(C)C)NC(=O)CNC(=O)[C@H](Cc1ccccc1)N(C)C(=O)[C@H](Cc1ccccc1)NC(=O)[C@H](CC(=O)O)NC(=O)CCC(=O)O)C(N)=O [[Succinyl-Asp^6, Me-Phe^8]-Sub P (6-11)] (HELM PEPTIDE1{[O=C(O)CCC(=O)[*:2]].D.F.[meF].G.L.M.[am]}$$$$V2.0)",,,,,,,47%,
CSCC[C@H](NC(=O)[C@H](CC(C)C)NC(=O)CNC(=O)[C@@H](NC(=O)[C@H](Cc1ccccc1)NC(=O)[C@H](CCC(N)=O)NC(=O)[C@H](CC(=O)O)NC(=O)[C@H](CO)NC(=O)[C@H](CCCCN)NC(=O)[C@@H]1CCCN1C(=O)[C@@H](NC(=O)[C@@H](N)CC(=O)O)C(C)C)C(C)C)C(N)=O [kassinin] (H-DVPKSDQFVGLM-NH2),,,did not show significant effects,did not show significant effects,,,,
"CC(C)C[C@H](NC(=O)[C@H](CC(C)C)NC(=O)[C@@H](Cc1c[nH]c2ccccc12)NC(=O)[C@H](Cc1ccccc1)NC(=O)[C@@H](Cc1c[nH]c2ccccc12)NC(=O)[C@H](CCC(N)=O)NC(=O)[C@H](CCC(N)=O)NC(=O)[C@@H]1CCCN1C(=O)[C@H](CCCCN)NC(=O)[C@@H]1CCCN1C(=O)[C@H](N)CCCNC(=N)N)C(N)=O [spantide, [D-Arg^1, D-Trp^7,9, Leu^11]-substance P] (HELM PEPTIDE1{[dR].P.K.P.Q.Q.[dW].F.[dW].L.L.[am]}$$$$V2.0)",118 ± 10%,significant early neurotrophic and late neurotoxic effects,,,120 ± 8%,significant early neurotrophic and late neurotoxic effects,,
"Sub P, Free Acid",,,,,,,53%,
"Sub P, Methyl Ester",,,,,,,71%,
